Several values for one entry are separate records, joined by “and”; a condition that tells them apart may be missing. Equal values may be shown once.
Key:
RSK2 = RSK2 (Homo sapiens, UniProt P51812); assay: In vitro kinase inhibition assay (modified Nguyen et al.); format: biochemical; details: RSK2 N-terminal domain; mean±SD, n = 5; concentration inhibiting 50% of control activity
Method: The RSK2 in vitro kinase inhibition assay utilized was a modification of protocols established by Nguyen et al.. Additional protocols that confirmed the results depicted in Figure 4 and evaluated kinase inhibitory activity in a random selection of protein kinases (Table 3) were conducted at Reaction Biology Corporation (Malvern, PA). This was a miniaturized ^33P-based screening assay.

HT29 [1] = assay: Sphere formation in serum free media and low attachment vessels; format: cell-based; details: serum free media, low attachment vessels, 0.1 µM SC-1, Day 1 and Day 5
Method: HT29 tumor line was cultured at 0.5–8 cells/µl in serum free media (RPMI 1640 containing EGF (20 ng/ml), bFGF (10 ng/ml) and B27 supplement) one day prior to addition of SC-1 (0.1 µM). The number of spheres per well was counted on Day 1 (A) and Day 5 (B) following treatment. Statistically significant effects (*p<0.05) for SC-1 treatment were found at all conditions where spheres formed. A representative experiment of 3 is shown here. (PDF) Click here for additional data file.

SW-620 = assay: Limiting dilution tumorigenicity, s.c. xenograft without protein support; format: in vivo, NOD.SCID mice; parameters: key to Tumorigenicity: Y indicates increased tumor formation or increased time to appearance or both.; Y ^%: Y indicates increased tumor formation when Matrigel was co-injected
Method: (§1) Five day exposures were conducted.
(§2) Six week old female NOD.SCID mice were randomly assigned to each of 20 treatment arms (n = 5/group). Treated and control colon tumor lines were enzymatically harvested and counted prior to dilution in RPMI 1640 (at 10, 100, 1,000, 10,000 cells/inoculum) for subcutaneous injection into the axillary region using a volume of […]. Positive control groups were established such that tumor formation occurred in all mice in approximately one week thus confirming that all tumor lines studied were tumorigenic. Cell inocula for the positive control groups ranged from 1×10^6 to 2.5×10^6. Cell viability of the cell stocks was assessed by trypan blue exclusion prior to dilution for injection and was routinely found to be >95%. Tumor formation was monitored weekly using caliper measurements and the tumor mass was calculated as weight in mg = 1/2×(tumor length)×(tumor width)^2. All experiments were terminated at 120 days or when tumor weight exceeded 2000 mg for any individual mouse. In selected studies, tumor cells were resuspended in Matrigel (50% concentration, BD Biosciences) prior to injection.

HCC-2998 = assay: as above; format: in vivo, NOD.SCID mice; parameters: key to Tumorigenicity: Y indicates increased tumor formation or increased time to appearance or both.; Y ^%: Y indicates increased tumor formation when Matrigel was co-injected
Method: as §1, §2

COLO 205 = assay: as above; format: in vivo, NOD.SCID mice; parameters: key to Tumorigenicity: Y indicates increased tumor formation or increased time to appearance or both.; Y ^%: Y indicates increased tumor formation when Matrigel was co-injected
Method: as §1, §2

HCT-116 = assay: as above; format: in vivo, NOD.SCID mice; parameters: key to Tumorigenicity: Y indicates increased tumor formation or increased time to appearance or both.; Y ^%: Y indicates increased tumor formation when Matrigel was co-injected
Method: as §1, §2

HT29 [2] = assay: as above; format: in vivo, NOD.SCID mice; parameters: key to Tumorigenicity: Y indicates increased tumor formation or increased time to appearance or both.; Y ^%: Y indicates increased tumor formation when Matrigel was co-injected
Method: as §1, §2

RSK2, sequence (P51812 whole entry, species assumed, the tested form may be a part): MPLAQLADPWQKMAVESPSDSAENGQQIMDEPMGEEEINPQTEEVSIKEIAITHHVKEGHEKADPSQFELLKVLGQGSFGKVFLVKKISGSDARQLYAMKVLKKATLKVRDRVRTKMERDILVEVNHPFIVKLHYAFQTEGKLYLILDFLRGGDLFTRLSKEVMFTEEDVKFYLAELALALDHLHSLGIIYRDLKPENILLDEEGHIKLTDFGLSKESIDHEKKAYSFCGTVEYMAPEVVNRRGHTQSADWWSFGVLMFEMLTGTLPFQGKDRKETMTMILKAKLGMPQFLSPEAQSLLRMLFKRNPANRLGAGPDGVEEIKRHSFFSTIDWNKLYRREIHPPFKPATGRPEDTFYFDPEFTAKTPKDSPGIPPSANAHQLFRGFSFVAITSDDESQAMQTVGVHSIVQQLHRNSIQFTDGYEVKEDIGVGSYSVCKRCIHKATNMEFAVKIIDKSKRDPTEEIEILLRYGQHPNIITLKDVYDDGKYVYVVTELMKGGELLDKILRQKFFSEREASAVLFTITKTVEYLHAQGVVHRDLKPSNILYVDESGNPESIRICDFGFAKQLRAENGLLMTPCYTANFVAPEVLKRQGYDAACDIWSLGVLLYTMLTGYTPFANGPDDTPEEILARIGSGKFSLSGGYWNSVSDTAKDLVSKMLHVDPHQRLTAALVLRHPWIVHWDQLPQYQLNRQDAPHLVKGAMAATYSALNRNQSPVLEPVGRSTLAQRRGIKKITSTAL

Cc1cc(Nc2ncc3c(n2)N(C)C(=O)N(c2cc(NC(=O)c4cccc(C(F)(F)F)c4)ccc2C)C3)n(C)n1 [SC-1]
EC50 (RSK2): 2.5 ± 1.8 µM
Number of spheres per well vs control (HT29 [1]): Increased Sphere Formation
Tumorigenicity (SW-620; SW-620, summary of SC-1 effects): Y
Tumor take rate (SW-620; SW-620 treated 5 days with 0.1 µM SC-1, 100 cells inoculated s.c.): 0/5
Tumor take rate (SW-620; SW-620 treated 5 days with 0.1 µM SC-1, 1000 cells inoculated s.c.): 0/5
Tumor take rate (SW-620; SW-620 treated 5 days with 0.1 µM SC-1, 10000 cells inoculated s.c.): 2/5
Calculated Time to 1000 mg Tumor Volume (SW-620; SW-620 treated 5 days with 0.1 µM SC-1, 10,000 cells/inoculum, extrapolated from fitted line): 98 days
Tumorigenicity (HCC-2998; HCC-2998, summary of SC-1 effects): Y
Tumor take rate (HCC-2998; HCC-2998 treated 5 days with 0.1 µM SC-1, 100 cells inoculated s.c.): 0/5
Tumor take rate (HCC-2998; HCC-2998 treated 5 days with 0.1 µM SC-1, 1000 cells inoculated s.c.): 0/5
Tumor take rate (HCC-2998; HCC-2998 treated 5 days with 0.1 µM SC-1, 10000 cells inoculated s.c.): 2/5
Calculated Time to 1000 mg Tumor Volume (HCC-2998; HCC-2998 treated 5 days with 0.1 µM SC-1, 10,000 cells/inoculum, extrapolated from fitted line): 139 days
Tumorigenicity (COLO 205; COLO 205, summary of SC-1 effects): Y
Tumor take rate (COLO 205; COLO 205 treated 5 days with 0.1 µM SC-1, 100 cells inoculated s.c.): 0/5
Tumor take rate (COLO 205; COLO 205 treated 5 days with 0.1 µM SC-1, 1000 cells inoculated s.c.): 1/5
Tumor take rate (COLO 205; COLO 205 treated 5 days with 0.1 µM SC-1, 10000 cells inoculated s.c.): 4 of 5 and 4/5
Calculated Time to 1000 mg Tumor Volume (COLO 205; COLO 205 treated 5 days with 0.1 µM SC-1, 10,000 cells/inoculum, extrapolated from fitted line): 101 days
Tumorigenicity (HCT-116; HCT-116, summary of SC-1 effects): Y
Tumor take rate (HCT-116; HCT-116 treated 5 days with 0.1 µM SC-1, 100 cells inoculated s.c.): 0/5
Tumor take rate (HCT-116; HCT-116 treated 5 days with 0.1 µM SC-1, 1000 cells inoculated s.c.): 2/5
Tumor take rate (HCT-116; HCT-116 treated 5 days with 0.1 µM SC-1, 10000 cells inoculated s.c.): 5/5
Calculated Time to 1000 mg Tumor Volume (HCT-116; HCT-116 treated 5 days with 0.1 µM SC-1, 10,000 cells/inoculum, extrapolated from fitted line): 45 days
Tumorigenicity (HT29 [2]; HT29, summary of SC-1 effects): Y
Tumor take rate (HT29 [2]; HT29 treated 5 days with 0.1 µM SC-1, 100 cells inoculated s.c.): 2 of 5 and 2/5
Tumor take rate (HT29 [2]; HT29 treated 5 days with 0.1 µM SC-1, 1000 cells inoculated s.c.): 3/5@
Tumor take rate (HT29 [2]; HT29 treated 5 days with 0.1 µM SC-1, 10000 cells inoculated s.c.): 5/5
Calculated Time to 1000 mg Tumor Volume (HT29 [2]; HT29 treated 5 days with 0.1 µM SC-1, 10,000 cells/inoculum, extrapolated from fitted line): 32 days
